Experimental data from patent US20230000868A1, “USE OF 2-PHENYL-6-(1H-IMIDAZOL-1-YL) QUINAZOLINE FOR THE PREVENTION OF ABUSE AND OF SIDE EFFECTS OF AT LEAST ONE OPIOID” (ROTTAPHARM BIOTECH S.R.L., priority 2019, published 2023).
Entries after “also recorded” stand apart in the source; their conditions may differ. Like-named read-outs stand apart in the source and are kept apart here.

Legend:
[1] = Open field test (distance travelled, sedation)
Experimental: The so-called open field test was used as a first model and the experiments were performed according to the procedure described by Haleem and Nawaz (Pain, 2017, 18:19-28). Drugs were administered 60 min (CR4056 or its vehicle, p.o.) and 30 min (morphine or its vehicle, s.c.) before the open field test. The video tracking was performed using the software Ethovision XT 13 (Noldus Information Technology), to assess the “distance travelled” as the primary parameter of sedation in this model. The test was performed every day after 4 days of repeated treatment.

[2] = Conditioned place preference (CPP)
Source text: This test exploits the tendency of rats to associate the environment where they are located with the effect of drugs administered during a conditioning period. The experiment was done in a wooden apparatus consisting of two lateral chambers (30×25 cm, length×width) with different visual and tactile properties and a central “neutral” chamber, smaller than the others (12×25 cm, length×width) with total white floor and walls. The lateral chambers had different decoration of walls (points or stripes) and different type of floor (smooth or rough). These differences can be recognized by rats, and thus associated with the effect of drug or vehicle treatment. All walls were 38.5 cm high. Four days before the preconditioning phase, the light/dark cycle was inverted; all phases of experiments were performed during the dark phase. On the preconditioning day (day 1), Wistar rats (Charles River) were placed in the neutral chamber and for 15 min they were free to explore all the environments of the apparatus (van der Kam E. L. et al. Pain, 2008, 136:373-379). The time spent in each chamber was recorded with a video tracking software (Ethovision XT 13, Noldus information technology). Rats that spent over 60% of time in one of two lateral chambers were not admitted to the conditioning phase: for admitted animals, the “preferred” chamber was therefore the one where a rat spent between 50% and 60% of time during preconditioning (while the “unpreferred” chamber was the opposite one). After preconditioning, rats were randomly assigned to the experimental groups (n=16). A total of 256 rats were used in this model. During the 2 days of the conditioning phase rats were treated with the test drug(s) (day 2) or vehicle (day 3). On the first conditioning day rats were treated with the test drug(s) and were confined in the preconditioning unpreferred lateral chamber (now defined paired chamber), with no access to the other chambers of the apparatus for 40 min. On the second day of conditioning rats were treated with vehicle and were located in the opposite chamber (unpaired chamber). The control group received vehicle in both chambers. CR4056 or its vehicle were administered 40 min before conditioning, whereas morphine or its vehicle were administered immediately before conditioning. There was no treatment on the test day (day 4), when rats were placed in the neutral chamber with the possibility to explore all chambers of the apparatus. The time spent in each chamber was recorded.
CR4056 (1 mg/kg) and morphine (1 mg/kg) alone or in co-administration were administered every other day. After 8 days of conditioning the test day was held as described above.

[3] = Inflammatory pain induced by complete Freund adjuvant (CFA); type: in vivo, rat; conditions: CR4056 1 mg/kg alone; FIG. 1, described as known effects
Source text: Previous art in the scientific literature describes that imidazoline I2 receptor agonists potentiate morphine-induced analgesia.

[4] = Opioid-induced constipation (faecal number 16 h after drug treatment)
Experimental: The experiments were conducted according to the procedure described by Harada et al. (J. Pharmacol. Exp. Ther. 2017, 362: 78-84). Wistar rats were used in this model. Fecal excretion was evaluated at the end of the dark phase of the light/dark cycle, when most activities and feeding of albino rats take place. Drugs were administered 2 h before the dark phase of the light/dark cycle, and the feces were collected and counted 16 h after drug treatment. In this experimental paradigm, CR4056 1 or 6 mg/kg was administered orally 15 min before morphine or codeine. A full analgesic dose of morphine (10 mg/kg subcutaneous) or codeine (12 mg/kg oral) were administered 15 minutes after CR4056 or vehicle.

Sedation rating scale = type: in vivo, rat
Source text: In addition, sedation was scored before each rotarod testing by the sedation rating scale. […] At each time point, a score from 0 (maximum sedation) to 5 (absent sedation) was assigned to each of the 8 parameters. The sum of the scores produced the total score.

[5] = morphine 1 mg/kg alone vs control rats
[6] = single administration, Morphine 1 mg/Kg
[7] = single administration, Morphine 2.5 mg/Kg
[8] = single administration, Morphine 5 mg/Kg

## c1ccc(-c2ncc3cc(-n4ccnc4)ccc3n2)cc1 [CR4056, 2-phenyl-6-(1H-imidazol-1-yl) quinazoline]
[1]; in vivo, po, 1 mg/kg
  locomotor activity (sedation): not sedative per se
[2]; rat, in vivo, 6 mg/kg
  place preference: did not induce place preference
[3]
  analgesic effect: non-analgesic

## COc1ccc2c3c1O[C@H]1[C@@H](O)C=C[C@H]4[C@@H](C2)N(C)CC[C@@]341 [Codeine, codeine]
[4]; codeine 12 mg/kg oral, 16 h after treatment, vs vehicle or CR4056
  defecation (faecal number): significant decrease in defecation

## CN1CC[C@]23c4c5ccc(O)c4O[C@H]2[C@@H](O)C=C[C@H]3[C@H]1C5 [Morphine, morphine]
[4]; morphine 10 mg/kg subcutaneous, 16 h, P<0.05 vs vehicle
  faecal number: significant decrease in faecal number; also recorded: significantly reduced faecal count
[1]; morphine 1-2.5 mg/kg, increased locomotor activity over 4 days of repeated treatment
  locomotor activity (sensitization): modest sensitization
[1]; morphine s.c. at doses higher than 5 mg/kg, 4 days of repeated treatment
  locomotor activity (sedation): clear sedative effect
[1]; morphine s.c., lower doses (not higher than 5 mg/kg)
  locomotor activity (sedation): not sedative
[5]
  rotarod performance: no significant changes in performance
Morphine 10 mg/kg vs controls
  rotarod performance: clearly sedative
[2]; acute administration, morphine 1 mg/kg
  preference for the paired chamber: did not induce preference
[2]; acute administration, morphine 2.5 mg/kg
  preference for the paired chamber (time paired vs unpaired): induced a statistically significant difference
[2]; acute administration, morphine 5 mg/kg
  preference for the paired chamber (time paired vs unpaired): induced a statistically significant difference
[2]; repeated administrations, 8 days of conditioning, Morphine 1 mg/kg
  %(P − U): +14%
[2]; repeated administrations, 8 days of conditioning, Morphine 1 mg/kg, (*) paired t-test < 0.05
  Δ(P − U) ± ES: 95 ± 17 (*)
[2]; repeated administrations, every other day, 8 days of conditioning, Morphine 1 mg/kg
  Seconds in Unpaired chamber (U): 295 s
[2]; repeated conditionings, morphine 1 mg/kg alone
  preference for the paired chamber: induced preference
[2]; [6]
  %(P − U): 1.2%
  Seconds in Unpaired chamber (U): 341 s
  Δ(P − U) ± ES: 7.6 ± 9.4
[2]; [7]
  %(P − U): 17.1%
  Seconds in Unpaired chamber (U): 291 s
[2]; [8]
  %(P − U): 20.2%
  Seconds in Unpaired chamber (U): 266 s
Sedation rating scale; [5]
  sedation scores: no significant changes in performance
Sedation rating scale; morphine 10 mg/kg vs controls
  sedation scores: clearly sedative
